From PMC6443933, “Antagonizing Retinoic Acid-Related-Orphan Receptor Gamma Activity Blocks the T Helper 17/Interleukin-17 Pathway Leading to Attenuated Pro-inflammatory Human Keratinocyte and Skin Responses” (Frontiers in Immunology, 2019)
pIC50: −log10 of the molar value.

Tests used:
[1] = test system: T1, RORα; test: RORα LBD-GAL4 reporter gene assay in Jurkat cells; format: cell-based, human
T1 construct: RORα and RORβ we performed LBD-GAL4 reporter gene assays; expressed in transfected cells; host or cells: Jurkat cells stably carrying pGL4.35
Description: (§1) Selectivity against other ROR family members was assessed in a GAL4 reporter gene assay as previously described ([44]). Briefly, Jurkat cells stably expressing the pGL4.35 plasmid (Promega) containing nine GAL4 binding sites inducing the transcription of the luciferase reporter gene were transiently transfected with the human RORα, RORβ or RORγt-LBD/GAL4-DBD constructs. After 24 h post-transfection, cells were incubated with Cpd A for an additional 24 h before luciferase activity was determined using an EnVision Multilabel Plate Reader (Perkin Elmer).

[2] = test system: T2, RORβ; test: RORβ LBD-GAL4 reporter gene assay in Jurkat cells; format: cell-based, human
T2 construct: RORα and RORβ we performed LBD-GAL4 reporter gene assays; expressed in transfected cells; host or cells: Jurkat cells stably carrying pGL4.35
Description: as §1

[3] = target: T3, full-length RORγt (Homo sapiens, UniProt P51449); test: 4 x RORE luciferase reporter assay in HUT78 T-cells expressing full-length RORγt; format: cell-based; conditions: CD3 antibody plus PMA, 48 h, read-out: IC50, 4 x RORE-driven luciferase activity
T3 construct: HUT78 T-cells stably expressing full-length eGFP-RORγt; eGFP; expressed in transfected cells
T3 sequence (P51449 1-497 isoform P51449-2): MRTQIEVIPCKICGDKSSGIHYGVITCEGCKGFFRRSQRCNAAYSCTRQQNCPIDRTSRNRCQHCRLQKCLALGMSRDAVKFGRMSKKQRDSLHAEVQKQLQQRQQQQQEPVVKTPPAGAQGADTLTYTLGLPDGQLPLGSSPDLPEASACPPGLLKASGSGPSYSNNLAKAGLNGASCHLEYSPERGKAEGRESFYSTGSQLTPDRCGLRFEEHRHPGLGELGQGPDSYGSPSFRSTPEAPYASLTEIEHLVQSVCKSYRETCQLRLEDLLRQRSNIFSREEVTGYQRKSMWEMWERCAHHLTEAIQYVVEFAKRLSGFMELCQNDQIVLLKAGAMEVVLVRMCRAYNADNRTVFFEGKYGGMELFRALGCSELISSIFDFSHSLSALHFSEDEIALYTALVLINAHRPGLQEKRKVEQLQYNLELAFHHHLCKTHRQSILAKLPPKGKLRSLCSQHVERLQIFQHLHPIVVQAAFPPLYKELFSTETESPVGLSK
Source text: HUT78 T-cells stably expressing full-length eGFP-RORγt or eGFP-empty vector were generated as described before ([45]). Cells were transfected with plasmids containing 4 × ROREs inserted into the pGL4.17 luciferase Firefly reporter plasmid (kindly provided by Dr. Juergen Reinhardt, Novartis). As a control construct, a mutated or a non-functional form of 4 × RORE (Mut-RORE), was transfected in eGFP-RORγt HUT78 T-cells. The plasmids contained the following sequences where the bold nucleotides represent the putative RORγt binding site or the mutated form of the RORE:
Two days after transfection, cells were incubated in X-vivo 15 medium containing 10% FCS and 700 μg/ml Geneticin (Corning) and stable clones expressing the 4 × ROREs or mutated-ROREs were obtained by limiting dilution. The luciferase expression of the individual cell clones was measured using Luciferase detection buffer (Perkin Elmer) and the RORC mRNA expression of the selected clones were quantified by qRT-PCR. […]

[4] = test system: total human CD4+ T-cells; test: Th17 polarization of total CD4+ T-cells, cytokine ELISA; format: cell-based; conditions: for IL-17 concentration in Th17 cell supernatants: 72 h
Description: (§2) Total, naive and memory CD4^+ T cells were isolated from Peripheral blood mononuclear cells (PBMCs) from healthy volunteers by density gradient centrifugation using Ficoll Paque (GE). Total, naive or memory CD4^+ T-cells were prepared by immunomagnetic separation using the respective CD4^+ T-cell enrichment kits resulting in untouched highly purified subsets (EasySep™, Stem Cell). Purity was assessed by flow cytometry and was between 95 and 98% for the total CD4^+ T-cells. The purity of naive (CD45RA^+CD45RO^−) and memory (CD45RA^−CD45RO^+) CD4^+T-cells ranged between 95 and 98%, respectively. For T-cell stimulation experiments, cells were treated as previously published ([44]). Briefly, T-cells were stimulated with plate-bound monoclonal antibodies against CD3 (1 μg/ml, clone OKT-3, BioXcell) and CD28 (1 μg/ml, clone CD28.2, BioLegend). For Th17 polarization assays, IL-6 (20 ng/ml), TGF-β1 (5 ng/ml), IL-1β (10 ng/ml), and IL-23 (10 ng/ml) were added. For Th1 polarization assays, IL-12 (10 ng/ml) and anti-IL-4 antibody (5 μg/ml), for Th2 polarizations, IL-4 (10 ng/ml) and anti-IFN-γ antibody (5 μg/ml) were added. For Th0 polarization assays, cells were only stimulated with CD3 and CD28 antibodies. Supernatants were collected after 3 or 7 days of incubation for total or naive/memory CD4^+ T-cell polarizations, respectively. Cytokine concentrations were quantified by ELISA according to the manufacturer's instructions (eBioscience or BioLegend).

[5] = test system: memory human CD4+ T-cells; test: Th17 polarization of memory CD4+ T-cells, IL-17A ELISA; format: cell-based; conditions: T-cell, 168 h, Th17 differentiation 7 days, read-out: IC50, IL-17A secretion
Description: as §2, with “Supernatants were collected after 3 or 7 days of incubation for total or naive/memory CD4^+ T-cell polarizations, respectively.” left out

[6] = test system: total CD4+ T-cells; test: Th0, Th1, Th2 polarization, signature cytokine ELISA; format: cell-based, human
Description: as §2

[7] = test system: RORγt expression; test: RORγt expression in cultures (data not shown); format: cell-based; conditions: preliminary evidence

Cc1ccc(C(=O)Nc2cn3ccnc3c(CN3CCN(c4noc(C(C)(C)C)n4)[C@@H](C)C3)c2C)cn1 [Cpd A, (S)-N-(8-((4-(5-(tert-butyl)-1,2,4-oxadiazol-3-yl)-3-methylpiperazin-1-yl)methyl)-7-methylimidazo[1,2-a]pyridin-6-yl)-6-methylnicotinamide]
activity toward RORα (LBD-GAL4 reporter) [1]: lacked activity
activity toward RORβ (LBD-GAL4 reporter) [2]: lacked activity
pIC50 [3]: 7.19
IL-17 concentration in Th17 cell supernatants ([4]; 0.13 nM (pharmacologically inactive concentration)): 600 pg/mL
IL-17 concentration in Th17 cell supernatants ([4]; 10 μM (active concentration)): 150 pg/mL
pIC50 ([4]; Homo sapiens, T-cell, total CD4+ T-cells, Th17 polarization 72 h, ELISA, read-out: IC50, IL-17A secretion): 7.41
TNF-α concentration in Th17 cell supernatants ([4]; similar at low or high compound concentrations): 4 ng/mL
pIC50 [5]: 7.57
Th2 signature cytokine production (IL-13) ([6]; IL-4 and anti-IFN-γ antibody): did not have any impact
Th1 signature cytokine production (IFN-γ) ([6]; IL-12 and anti-IL-4 antibody): did not have any impact
Th0 signature cytokine production (IL-2) ([6]; anti-CD3 plus anti-CD28 only): did not have any impact
RORγt expression in cultures [7]: did not modify
